Test system: SKM MYOFIBRIL
Assay: SKM myofibril AC1.4 (ATPase, PK/LDH coupled enzyme system); also: unit not given here
Format: biochemical
Conditions: screen at pCa=6.5

Compound | SKM MYOFIBRIL AC1.4 (median)
C[C@H](Nc1c(-c2ccc(O)cc2)nc2ccccn12)C(C)(C)C [4-{3-[((1S)-1,2,2-trimethylpropyl)amino]-4-hydroimidazo[1,2-a]pyridin-2-yl}phenol] | 11.8489
Oc1ccc(-c2nc3ccc(F)cn3c2NCc2ccc(F)cc2)cc1 [4-(6-fluoro-3-{[(4-fluorophenyl)methyl]amino}-4-hydroimidazo[1,2-a]pyridin-2-yl)phenol] | 26.5123
CN(C)CCNC(=O)c1ccc2nc(-c3ccccc3O)c(NCc3ccc(F)cc3)n2c1 [N-[2-(dimethylamino)ethyl](3-{[(4-fluorophenyl)methyl]amino}-2-(2-hydroxyphenyl)(4-hydroimidazo[1,2-a]pyridin-6-yl))carboxamide] | 4.4632
Oc1ccccc1-c1nc2ccccn2c1NC1CCCC1 [2-[3-(cyclopentylamino)-4-hydroimidazo[1,2-a]pyridin-2-yl]phenol] | 11.2917
Cc1ccn2c(NCc3cccc(Cl)c3)c(-c3ccc(Cl)cc3O)nc2c1 [5-chloro-2-(3-{[(3-chlorophenyl)methyl]amino}-7-methyl(4-hydroimidazo[1,2-a]pyridin-2-yl))phenol] | 20.0045
Cc1ccc2nc(-c3ccccc3O)c(NCc3cccc(Cl)c3)n2n1 [2-(3-{[(3-chlorophenyl)methyl]amino}-6-methyl-4-hydroimidazo[1,2-e]pyridazin-2-yl)phenol] | 3.5753
CC(C)(O)c1ccc2nc(-c3ccccc3O)c(NCc3cccc(Cl)c3)n2c1 [2-(3-{[(3-chlorophenyl)methyl]amino}-6-(1-hydroxy-isopropyl)-4-hydroimidazo[1,2-a]pyridin-2-yl)phenol] | 2.0993
Oc1ccccc1-c1nc2ccccn2c1NC1CCCCC1 [2-[3-(cyclohexylamino)-4-hydroimidazo[1,2-a]pyridin-2-yl]phenol] | 8.1939
Cc1ccn2c(NCc3ccc(F)cn3)c(-c3ccccc3O)nc2c1 [2-(3-{[(5-fluoro(2-pyridyl))methyl]amino}-7-methyl-4-hydroimidazo[1,2-a]pyridin-2-yl)phenol] | 7.3934
CC(C)(C)CC(C)(C)Nc1c(-c2ccc(O)cc2)nc2ccccn12 [4-{3-[(1,1,3,3-tetramethylbutyl)amino]-4-hydroimidazo[1,2-a]pyridin-2-yl}phenol] | 23.4246
Cc1ccn2c(NCC(=O)N3CCCCC3)c(-c3ccccc3O)nc2c1 [2-{[2-(2-hydroxyphenyl)-7-methyl(4-hydroimidazo[1,2-a]pyridin-3-yl)]amino}-1-piperidylethan-1-one] | 40.2086
CCC(C)(C)Nc1c(-c2cc3cc(C)ccc3nc2O)nc2ccccn12 [3-{3-[(1,1-dimethylpropyl)amino](4-hydroimidazo[1,2-a]pyridin-2-yl)}-6-methylquinolin-2-ol] | 1.1087
CN(C)CCNCc1ccc2nc(-c3ccccc3O)c(NCc3cccc(Cl)c3)n2c1 [2-[6-({[2-(dimethylamino)ethyl]amino}methyl)-3-{[(3-chlorophenyl)methyl]amino}-4-hydroimidazo[1,2-a]pyridin-2-yl]phenol] | 6.9925
Oc1ccc(-c2nc3ccc(Br)cn3c2NC2CCCCC2)cc1 [4-[6-bromo-3-(cyclohexylamino)-4-hydroimidazo[1,2-a]pyridin-2-yl]phenol] | 12.8016
Oc1ccc(-c2nc3ccccn3c2NCc2cccc(F)c2)cc1 [4-(3-{[(3-fluorophenyl)methyl]amino}-4-hydroimidazo[1,2-a]pyridin-2-yl)phenol] | 28.3763
COc1cccc(CNc2c(-c3ccccc3O)nc3cc(C)ccn23)c1 [2-(3-{[(3-methoxyphenyl)methyl]amino}-7-methyl-4-hydroimidazo[1,2-a]pyridin-2-yl)phenol] | 10.2909
Oc1ccccc1-c1nc2ccc(Br)cn2c1NCc1cccc(Cl)c1 [2-(6-bromo-3-{[(3-chlorophenyl)methyl]amino}-4-hydroimidazo[1,2-a]pyridin-2-yl)phenol] | 5.3855
Oc1ccc(-c2nc3ccc(Cl)cn3c2NCc2ccc(F)cc2)cc1 [4-(6-chloro-3-{[(4-fluorophenyl)methyl]amino}-4-hydroimidazo[1,2-a]pyridin-2-yl)phenol] | 14.9602
NC(=O)c1ccc2nc(-c3ccccc3O)c(NCc3cccc(Cl)c3)n2c1 [3-{[(3-chlorophenyl)methyl]amino}-2-(2-hydroxyphenyl)-4-hydroimidazo[1,2-a]pyridine-6-carboxamide] | 1.2788
O=C(NCCO)c1ccc2nc(-c3ccccc3O)c(NCc3ccc(F)cc3)n2c1 [(3-{[(4-fluorophenyl)methyl]amino}-2-(2-hydroxyphenyl)(4-hydroimidazo[1,2-a]pyridin-6-yl))-N-(2-hydroxyethyl)carboxamide] | 2.2384
CC(C)(O)c1ccc2nc(-c3ccccc3O)c(NCc3ccc(F)cc3)n2c1 [2-(3-{[(4-fluorophenyl)methyl]amino}-6-(1-hydroxy-isopropyl)-4-hydroimidazo[1,2-a]pyridin-2-yl)phenol] | 4.1299

Compound | SKM MYOFIBRIL AC1.4 (median)
Cc1ccc2nc(-c3ccc(O)cc3)c(NC3CCCC3)n2c1 [4-[3-(cyclopentylamino)-6-methyl-4-hydroimidazo[1,2-a]pyridin-2-yl]phenol] | 13.5754
CN(C)CCNC(=O)c1ccc2nc(-c3ccccc3O)c(NCc3cccc(Cl)c3)n2c1 [N-[2-(dimethylamino)ethyl](3-{[(3-chlorophenyl)methyl]amino}-2-(2-hydroxyphenyl)(4-hydroimidazo[1,2-a]pyridin-6-yl))carboxamide] | 2.2231
Oc1ccc(-c2nc3cc(Cl)ccn3c2NCc2ccc(F)cc2)cc1 [4-(7-chloro-3-{[(4-fluorophenyl)methyl]amino}-4-hydroimidazo[1,2-a]pyridin-2-yl)phenol] | 10.9866
Cc1ccc(-c2nc3ccccn3c2NCc2cccc(Cl)c2)cc1 [[(3-chlorophenyl)methyl][2-(4-methylphenyl)(4-hydroimidazo[1,2-a]pyridin-3-yl)]amine] | 17.6147
COCCNC(=O)c1ccc2nc(-c3ccccc3O)c(NCc3cccc(Cl)c3)n2c1 [(3-{[(3-chlorophenyl)methyl]amino}-2-(2-hydroxyphenyl)(4-hydroimidazo[1,2-a]pyridin-6-yl))-N-(2-methoxyethyl)carboxamide] | 2.0573
Cc1ccc2cc(-c3nc4cc(C)ccn4c3NCc3cccc(Cl)c3)c(O)nc2c1 [3-(3-{[(3-chlorophenyl)methyl]amino}-7-methyl(4-hydroimidazo[1,2-a]pyridin-2-yl))-7-methylquinolin-2-ol] | 9.2086
Cc1ccc(-c2nc3ccccn3c2NC2CCCCC2)cc1 [cyclohexyl[2-(4-methylphenyl)(4-hydroimidazo[1,2-a]pyridin-3-yl)]amine] | 25.2334
Oc1ccc(-c2nc3ccc(-c4ccccc4)cn3c2NCc2ccc(F)cc2)cc1 [4-(3-{[(4-fluorophenyl)methyl]amino}-6-phenyl-4-hydroimidazo[1,2-a]pyridin-2-yl)phenol] | 15.7257
Cc1ccn2c(NC3CCCCC3)c(-c3ccoc3)nc2c1 [cyclohexyl(2-(3-furyl)-7-methyl(4-hydroimidazo[1,2-a]pyridin-3-yl))amine] | 30.5823
Cc1ccn2c(NCc3ccccc3Cl)c(-c3ccccc3O)nc2c1 [2-(3-{[(2-chlorophenyl)methyl]amino}-7-methyl-4-hydroimidazo[1,2-a]pyridin-2-yl)phenol] | 1.165
NCc1ccc2nc(-c3ccccc3O)c(NCc3cccc(Cl)c3)n2c1 [2-(6-(aminomethyl)-3-{[(3-chlorophenyl)methyl]amino}-4-hydroimidazo[1,2-a]pyridin-2-yl)phenol] | 0.2349
Oc1ccccc1-c1nc2ccccn2c1NCc1cccc(Cl)c1 [2-(3-{[(3-chlorophenyl)methyl]amino}-4-hydroimidazo[1,2-a]pyridin-2-yl)phenol] | 4.2459
Cc1ccn2c(NCc3ccc(F)cc3F)c(-c3ccccc3O)nc2c1 [2-(3-{[(2,4-difluorophenyl)methyl]amino}-7-methyl-4-hydroimidazo[1,2-a]pyridin-2-yl)phenol] | 0.959
Oc1ccc(-c2nc3ccccn3c2NCc2ccccc2Cl)cc1 [4-(3-{[(2-chlorophenyl)methyl]amino}-4-hydroimidazo[1,2-a]pyridin-2-yl)phenol] | 17.7003
Cc1ccc2nc(-c3ccccc3O)c(NCc3cccc(Cl)c3)n2c1 [2-(3-{[(3-chlorophenyl)methyl]amino}-6-methyl-4-hydroimidazo[1,2-a]pyridin-2-yl)phenol] | 1.1197
Cc1cccn2c(NC3CCCCC3)c(-c3ccc(O)cc3)nc12 [4-[3-(cyclohexylamino)-8-methyl-4-hydroimidazo[1,2-a]pyridin-2-yl]phenol] | 8.8767
Oc1ccc(-c2nc3ccccn3c2NCc2cccc(Cl)c2)cc1 [4-(3-{[(3-chlorophenyl)methyl]amino}-4-hydroimidazo[1,2-a]pyridin-2-yl)phenol] | 10.5567
COc1ccc(-c2nc3ccccn3c2NC2CCCCC2)cc1 [cyclohexyl[2-(4-methoxyphenyl)(4-hydroimidazo[1,2-a]pyridin-3-yl)]amine] | 16.6703
Oc1ccc(-c2nc3ccc(-c4ccccc4)cn3c2NC2CCCC2)cc1 [4-[3-(cyclopentylamino)-6-phenyl-4-hydroimidazo[1,2-a]pyridin-2-yl]phenol] | 22.1213
C[C@@H](Nc1c(-c2ccc(O)cc2)nc2ccccn12)c1ccccc1 [4-{3-[((1R)-1-phenylethyl)amino]-4-hydroimidazo[1,2-a]pyridin-2-yl}phenol] | 28.0451
OCc1ccc2nc(-c3ccccc3O)c(NCc3cccc(Cl)c3)n2c1 [2-(3-{[(3-chlorophenyl)methyl]amino}-6-(hydroxymethyl)-4-hydroimidazo[1,2-a]pyridin-2-yl)phenol] | 1.6756

Source: patent publication US20100173930A1, “Certain Chemical Entities, Compositions and Methods” (priority 2006, published 2010)
